From PubChem BioAssay (NCI)
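Cells were grown in 96-well plates and exposed to each compound for 48 hours at five concentrations; endpoints were interpolated linearly between bracketing concentrations, or set to the highest concentration if not reached. GI50 marks 50% less growth. TGI marks complete inhibition of growth.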

Key:
Assay in all cases: NCI tumour cell line growth inhibition, 48 h
786-0 renal = system: 786-0 renal
A498 renal = system: A498 renal
A549 NSCLC = system: A549 NSCLC
ACHN renal = system: ACHN renal
BT-549 breast = system: BT-549 breast
CAKI-1 renal = system: CAKI-1 renal
CCRF-CEM leukemia = system: CCRF-CEM leukemia
COLO 205 colon = system: COLO 205 colon
DU-145 prostate = system: DU-145 prostate
EKVX NSCLC = system: EKVX NSCLC
HCC-2998 colon = system: HCC-2998 colon
HCT-116 colon = system: HCT-116 colon
HCT-15 colon = system: HCT-15 colon
HL-60(TB) leukemia = system: HL-60(TB) leukemia
HOP-62 NSCLC = system: HOP-62 NSCLC
HOP-92 NSCLC = system: HOP-92 NSCLC
HS 578T breast = system: HS 578T breast
HT29 colon = system: HT29 colon
IGROV1 ovarian = system: IGROV1 ovarian
K-562 leukemia = system: K-562 leukemia
KM12 colon = system: KM12 colon
LOX IMVI melanoma = system: LOX IMVI melanoma
MALME-3M melanoma = system: MALME-3M melanoma
MCF7 breast = system: MCF7 breast
MDA-MB-231 breast = system: MDA-MB-231 breast
MOLT-4 leukemia = system: MOLT-4 leukemia
NCI-H226 lung = system: NCI-H226 lung
NCI-H23 lung = system: NCI-H23 lung
NCI-H460 lung = system: NCI-H460 lung
NCI-H522 lung = system: NCI-H522 lung
NCI/ADR-RES ovarian = system: NCI/ADR-RES ovarian
OVCAR-3 ovarian = system: OVCAR-3 ovarian
OVCAR-4 ovarian = system: OVCAR-4 ovarian
OVCAR-5 ovarian = system: OVCAR-5 ovarian
OVCAR-8 ovarian = system: OVCAR-8 ovarian
PC-3 prostate = system: PC-3 prostate
RPMI-8226 leukemia = system: RPMI-8226 leukemia
SF-268 CNS = system: SF-268 CNS
SF-295 CNS = system: SF-295 CNS
SF-539 CNS = system: SF-539 CNS
SK-MEL-2 melanoma = system: SK-MEL-2 melanoma
SK-MEL-28 melanoma = system: SK-MEL-28 melanoma
SK-MEL-5 melanoma = system: SK-MEL-5 melanoma
SK-OV-3 ovarian = system: SK-OV-3 ovarian
SN12C renal = system: SN12C renal
SNB-19 CNS = system: SNB-19 CNS
SR leukemia = system: SR leukemia
SW-620 colon = system: SW-620 colon
T-47D breast = system: T-47D breast
TK-10 renal = system: TK-10 renal
U251 CNS = system: U251 CNS
UACC-257 melanoma = system: UACC-257 melanoma
UACC-62 melanoma = system: UACC-62 melanoma
UO-31 renal = system: UO-31 renal

SMILES: COc1cc(/C(C#N)=C/c2nc3c(N4CCOCC4)nc(Cl)nc3n2C)cc(OC)c1OC
- GI50 (786-0 renal): < 10 nM
- TGI (786-0 renal): 3120 nM
- GI50 (A498 renal): < 10 nM
- TGI (A498 renal): < 10 nM
- GI50 (A549 NSCLC): < 10 nM
- TGI (A549 NSCLC): > 45500 nM
- GI50 (ACHN renal): < 10 nM
- TGI (ACHN renal): 4990 nM
- GI50 (BT-549 breast): < 10 nM
- TGI (BT-549 breast): 481 nM
- GI50 (CAKI-1 renal): < 10 nM
- TGI (CAKI-1 renal): 2870 nM
- GI50 (CCRF-CEM leukemia): < 10 nM
- TGI (CCRF-CEM leukemia): 668 nM
- GI50 (COLO 205 colon): 12.4 nM
- TGI (COLO 205 colon): 33.5 nM
- GI50 (DU-145 prostate): < 10 nM
- TGI (DU-145 prostate): > 94300 nM
- TGI (EKVX NSCLC): > 69900 nM
- GI50 (HCC-2998 colon): < 15.7 nM
- TGI (HCC-2998 colon): 2190 nM
- GI50 (HCT-116 colon): < 10 nM
- TGI (HCT-116 colon): 464 nM
- GI50 (HCT-15 colon): < 10 nM
- TGI (HCT-15 colon): 6940 nM
- GI50 (HL-60(TB) leukemia): < 10 nM
- TGI (HL-60(TB) leukemia): < 10 nM
- GI50 (HOP-62 NSCLC): < 10 nM
- TGI (HOP-62 NSCLC): 12900 nM
- GI50 (HOP-92 NSCLC): 158 nM
- TGI (HOP-92 NSCLC): 4380 nM
- GI50 (HS 578T breast): < 10 nM
- TGI (HS 578T breast): > 23700 nM
- GI50 (HT29 colon): < 10 nM
- TGI (HT29 colon): 3420 nM
- GI50 (IGROV1 ovarian): < 10 nM
- TGI (IGROV1 ovarian): 16600 nM
- GI50 (K-562 leukemia): < 10 nM
- TGI (K-562 leukemia): > 38400 nM
- GI50 (KM12 colon): < 10 nM
- TGI (KM12 colon): 4360 nM
- GI50 (LOX IMVI melanoma): < 10 nM
- TGI (LOX IMVI melanoma): 4170 nM
- GI50 (MALME-3M melanoma): < 10 nM
- TGI (MALME-3M melanoma): 20800 nM
- GI50 (MCF7 breast): < 11.5 nM
- TGI (MCF7 breast): > 32500 nM
- GI50 (MDA-MB-231 breast): < 10 nM
- TGI (MDA-MB-231 breast): 35900 nM
- GI50 (MOLT-4 leukemia): < 18.4 nM
- TGI (MOLT-4 leukemia): 27500 nM
- TGI (NCI-H226 lung): 3030 nM
- GI50 (NCI-H23 lung): < 10 nM
- TGI (NCI-H23 lung): > 35400 nM
- GI50 (NCI-H460 lung): < 10 nM
- TGI (NCI-H460 lung): 5370 nM
- GI50 (NCI-H522 lung): < 10 nM
- TGI (NCI-H522 lung): 2880 nM
- GI50 (NCI/ADR-RES ovarian): < 10 nM
- TGI (NCI/ADR-RES ovarian): 5560 nM
- GI50 (OVCAR-3 ovarian): < 10 nM
- TGI (OVCAR-3 ovarian): < 10 nM
- GI50 (OVCAR-4 ovarian): < 10 nM
- TGI (OVCAR-4 ovarian): 41100 nM
- GI50 (OVCAR-5 ovarian): < 10 nM
- TGI (OVCAR-5 ovarian): > 100000 nM
- GI50 (OVCAR-8 ovarian): < 10 nM
- TGI (OVCAR-8 ovarian): 31300 nM
- GI50 (PC-3 prostate): < 10 nM
- TGI (PC-3 prostate): 7620 nM
- GI50 (RPMI-8226 leukemia): < 10 nM
- TGI (RPMI-8226 leukemia): 1880 nM
- GI50 (SF-268 CNS): < 11.8 nM
- TGI (SF-268 CNS): > 26800 nM
- GI50 (SF-295 CNS): < 10 nM
- TGI (SF-295 CNS): 1490 nM
- GI50 (SF-539 CNS): < 10 nM
- TGI (SF-539 CNS): < 10 nM
- GI50 (SK-MEL-2 melanoma): < 14.4 nM
- TGI (SK-MEL-2 melanoma): 62700 nM
- GI50 (SK-MEL-28 melanoma): 1030 nM
- TGI (SK-MEL-28 melanoma): > 64800 nM
- GI50 (SK-MEL-5 melanoma): < 10 nM
- TGI (SK-MEL-5 melanoma): 26.8 nM
- GI50 (SK-OV-3 ovarian): < 10 nM
- TGI (SK-OV-3 ovarian): 7270 nM
- GI50 (SN12C renal): < 10 nM
- TGI (SN12C renal): 22100 nM
- GI50 (SNB-19 CNS): < 10 nM
- TGI (SNB-19 CNS): > 100000 nM
- GI50 (SR leukemia): < 10 nM
- GI50 (SW-620 colon): < 10 nM
- TGI (SW-620 colon): > 100000 nM
- TGI (T-47D breast): 5630 nM
- GI50 (TK-10 renal): 2910 nM
- TGI (TK-10 renal): 17800 nM
- GI50 (U251 CNS): < 10 nM
- TGI (U251 CNS): > 32200 nM
- GI50 (UACC-257 melanoma): 2450 nM
- TGI (UACC-257 melanoma): > 55200 nM
- GI50 (UACC-62 melanoma): < 10 nM
- TGI (UACC-62 melanoma): 15500 nM
- GI50 (UO-31 renal): < 10 nM
- TGI (UO-31 renal): 5170 nM
